{
  "source": "patent US20180185374A1",
  "about": "“INHIBITORS OF MTOR KINASE AS ANTI-VIRAL AGENTS” (THE TRUSTEES OF PRINCETON UNIVERSITY, priority 2009, published 2018)",
  "key": {"HCMV [1]": {"tested_on": "HCMV", "test": "Torin1 drug release experiment, HCMV yield 16 days post infection by TCID50", "format": "cell-based, human cytomegalovirus", "conditions": "≤250 nM drug", "method": "FIG. 1. […] Serum-starved confluent human fibroblasts were infected with HCMV at a multiplicity of 0.05 PFU/cell. Cell-free virus was quantified by a TCID50 assay, and error bars represent the standard errors of the means from two independent experiments, each performed in duplicate. […] Supernatants were harvested every other day and replaced with fresh medium containing the appropriate treatment, and virus in the supernatant was assayed on the indicated days. […] Infected fibroblasts were treated with various doses of Torin1. Medium with drug was replaced every other day, and virus in the supernatant was assayed on day 8 post infection (black bars). On day 8, a second set of cultures was washed twice, serum-free medium containing no drug was added to each well, and virus was assayed after an additional 8 days (16 days post infection) (white bars).\nTo further confirm that the viral growth defect was not the result of cytotoxicity, we performed a drug release experiment. […] Eight days later, virus in the supernatant was quantified by the TCID50 method (16 days post infection) (FIG. 1B)."}, "HCMV [2]": {"tested_on": "HCMV", "test": "GFP marker expression from viral genome, percentage of infected cells", "format": "cell-based, human cytomegalovirus", "conditions": "24 hpi; 250 nM", "method": "FIG. 2. […] Serum-starved confluent fibroblasts were infected with HCMV at a multiplicity of 3 PFU/cell. […] Control cultures received the vehicle in which Torin1 was dissolved (NT). At 2 hpi cells were harvested, and cell-associated viral DNA was quantified by real-time PCR analysis. Error bars represent the standard errors of the means from two independent experiments performed in duplicate. […] The level of IE1 was determined at 6 hpi by a Western blot assay using an IE1-specific monoclonal antibody. The image is representative of two independent experiments. […] The expression of a GFP marker gene present in the viral genome was monitored at 24 h after infection in the presence or absence of drug."}, "HCMV [3]": {"tested_on": "HCMV", "test": "HCMV DNA accumulation by qPCR", "format": "cell-based, human cytomegalovirus", "conditions": "96 hpi; Torin1 250 nM; 0.05 PFU/cell", "method": "FIG. 3. […] (A) Rapamycin-resistant mTOR activity is required for the accumulation of an some but not all HCMV proteins. […] Cells were harvested at the indicated times, and the accumulation of the indicated proteins was analyzed by Western blotting. […] At the indicated times DNA was isolated, and viral DNA was quantified by qPCR. Equivalent amounts of DNA were analyzed for each sample, and the results are normalized to the level of actin DNA per sample. […] At the indicated times the amount of UL99 RNA was determined by qPCR, and the results are normalized to the amount of actin RNA in each sample.\nDetermination of viral DNA and transcript accumulation in infected cells. The accumulation of viral DNA during HCMV infection was monitored by quantitative PCR (qPCR) as described previously (Terhune, et al. (2007) J. Virol. 81:3109-3123).\nBriefly, primary human fibroblasts were infected with BADinGFP at a multiplicity of 0.05 PFU/cell. At the indicated times, cells were harvested by scraping them into medium and were stored as frozen cell pellets until analysis. Cell pellets were resuspended in 500 μl of a solution containing 400 mM NaCl, 10 mM Tris (pH 7.5), and 10 mM EDTA. […] For each sample, DNA was quantified by using a NanoDrop spectrophotometer (Thermo Scientific). […]\nViral DNA accumulation was measured by quantitative real-time PCR of fibroblasts treated with rapamycin or Torin1. […]"}, "4EBP1 [4]": {"tested_on": "4EBP1", "test": "4EBP1 phosphorylation in HSV-1-infected MEFs, Western blot", "format": "cell-based, mouse", "conditions": "3 PFU/cell, 8 hpi"}, "rpS6": {"tested_on": "rpS6", "test": "rpS6 phosphorylation in HCMV-infected fibroblasts, Western blot", "format": "cell-based, human", "conditions": "rapamycin 20 nM, Torin1 250 nM; 3 PFU/cell", "method": "(§1) FIG. 4. Rapamycin-resistant mTOR activity is required for 4EBP1 phosphorylation and eIF4F complex integrity during HCMV infection. Serum-starved confluent human fibroblasts were infected with HCMV at a multiplicity of 3 PFU/cell. […] (A) At 48 hpi the phosphorylation status of mTORC1 targets was assessed by Western blot assay by using antibodies to phosphorylated targets (4EBP1-PT^37/46 and rpS6-PS^235/6) and total proteins. Tubulin was assayed as a loading control. (B) Same as above (A) except that cells were harvested at the indicated times. (C and D) After mock infection (M) or infection with HCMV (WT) at a multiplicity of 3 PFU/cell, cultures were harvested at the indicated times. Equivalent amounts of protein from each sample were incubated with m^7GTP-Sepharose, and the isolated protein complexes were analyzed by Western blotting using the indicated antibodies to the eIF4F complex and 4EBP1. In all cases the results are representative of at least two independent experiments. lys, lysate.\n(§2) HCMV infection induces mTORC1 activity, but the phosphorylation of mTORC1 targets is differentially sensitive to the mTORC1 inhibitor rapamycin. […] Total 4EBP1, rpS6, and tubulin levels were monitored to control for protein recovery. […]"}, "MCMV": {"tested_on": "MCMV", "test": "MCMV replication in MEFs, cell-free virus by TCID50", "format": "cell-based, murine cytomegalovirus", "conditions": "Torin1 250 nM"}, "4EBP1 [5]": {"tested_on": "4EBP1", "test": "4EBP1 phosphorylation in HCMV-infected fibroblasts, Western blot", "format": "cell-based, human", "conditions": "rapamycin 20 nM, Torin1 250 nM; 3 PFU/cell", "method": "as §1, §2"}},
  "data": [
    {"smiles": "CCC(=O)N1CCN(c2ccc(-n3c(=O)ccc4cnc5ccc(-c6cnc7ccccc7c6)cc5c43)cc2C(F)(F)F)CC1", "note": "[Torin1]", "values": [
      {"measurement": "increase in virus yield after reversal of 8-day treatment", "setting": "HCMV [1]", "result": "≥ 100", "unit": "fold"},
      {"measurement": "percentage of cells expressing GFP marker", "setting": "HCMV [2]", "result": "did not alter the percentage of cells"},
      {"measurement": "reduction of viral DNA accumulation", "setting": "HCMV [3]", "result": 150, "unit": "fold"},
      {"measurement": "phosphorylation of 4EBP1 during HSV-1 infection", "setting": "4EBP1 [4]", "result": "inhibited"},
      {"measurement": "induction of rpS6 phosphorylation during HCMV infection", "setting": "rpS6", "result": "markedly inhibited"},
      {"measurement": "MCMV replication", "setting": "MCMV; 4EBP1-null MEFs, rapamycin 20 nM, 6 days post infection", "result": "no longer capable of inhibiting"},
      {"measurement": "MCMV replication", "setting": "MCMV; Akt1/Akt2-null MEFs", "result": "Torin-sensitive"},
      {"measurement": "MCMV replication", "setting": "MCMV; Rictor-null MEFs, 6 days post infection", "result": "effectively inhibited"},
      {"measurement": "MCMV replication", "setting": "MCMV; wild-type MEFs, 0.05 PFU/cell, rapamycin 20 nM", "result": "inhibited MCMV replication"},
      {"measurement": "phosphorylation of 4EBP1 during HCMV infection", "setting": "4EBP1 [5]", "result": "substantially blocked"}
    ]}
  ]
}
